Results from patent US11213494B2 (priority 2016, dated 2022).

Key:
[1] = in vivo; cited from earlier work
[2] = system: RTT mice (Mecp2Jae females); assay: Intermittent very low dose ketamine regimen with plethysmography; type: in vivo; settings: 3 mg/kg once every 3 days for two weeks, measured 24 hours after the last injection
Method: FIG. 14 illustrates a very low dose ketamine (3 mg/kg) dosing regimen for the treatment of RTT in miceMecp2Jae OC females treated once every 72 hours for two weeks (saline or Ketamine 3 mg/kg) with plethysmography measurement 24 hours after the last injection.
This Example evaluated a ketamine dosing regimen for the treatment of Rett syndrome. […] These effects are consistent with the ability of ketamine to increase activity in cortical pyramidal cells by selectively inhibiting cortical inhibitory interneurons.

Mecp2 Het mice = assay: Prepulse inhibition (PPI) of the acoustic startle response; type: in vivo; settings: ketamine 8 mg/kg; for % PPI 73 dB: prepulse 73 dB; for % PPI 76 dB: prepulse 76 dB; for % PPI 82 dB: prepulse 82 dB
Method: Prepulse inhibition (PPI) of the acoustic startle response (ASR) was measured to assess sensorimotor gating function using Med Associates Startle Response recording system. Mice were divided into four groups (Het ketamine, Het vehicle, Wt ketamine, Wt vehicle), and received injections of either ketamine (8 mg/kg) or an equivalent amount of saline immediately before they were placed individually inside a small-sized, nonrestrictive, cubical Plexiglas recording chamber [2.5 inches (L)×2.5 inches (W)×1.75 inches (H)] fixed on an accelerometer platform and allowed to acclimate for 5 min. Subsequently, the mouse was exposed to 4 testing blocks. In the first testing block, the initial startle response amplitude was determined by delivering a 40 ms pulse of 120 dB broadband white noise and recording the maximum startle amplitude (Vmax). A baseline startle response was determined by repeating this recording paradigm for six consecutive trials (with 8-23 s between each stimulus) and calculating the average Vmax measured in those trials. In the second and third testing blocks, the mice were exposed to a series of “pulse-only” or “prepulse-pulse pair” stimuli to determine the effect that a reduced intensity prepulse had on the acoustic startle response. The pulse-only stimulus consisted of an 80 ms stimulus of 120 dB. The prepulse-pulse pair trials were conducted by delivering a single 20 ms prepulse, with an intensity of 73, 76 or 82 dB before an 80 ms stimulus with an intensity of 120 dB. An average delay of 15 s (8-23 s) occurred between each stimulus. Each prepulse-pulse pair trial was repeated 10 times, pulse only trials were repeated 12 times. The Vmax measured from each prepulse-pulse trial was compared with the Vmax measured from the 120 dB pulse-only trials, and a percentage prepulse inhibition (% PPI) was calculated for each prepulse intensity. In the fourth testing block, startle response Vmax was recorded from 6 additional 40 ms pulses of 120 dB broadband white noise (with 8-23 s between each stimulus) and compared with the baseline startle response from the first testing block to eliminate the possibility of habituation to the acoustic stimulus throughout the test.

[3] = system: Fos expression in the forebrain (piriform cortex); assay: Fos immunostaining 90 min after ketamine injection, count of Fos-positive cells; type: in vivo, mice; settings: for number of Fos-positive cells in the piriform cortex: 90 min after injection
Method: Three- and 6-week-old male mice, or 11-week-old female mice, were deeply anesthetized by inhalation of isoflurane and perfused transcardially with PBS followed by ice-cold 4% paraformaldehyde in 0.1Mphosphate buffer, pH7.4, within 10 min. […] Brains were postfixed in 4% paraformaldehyde for 2.5 h, cryoprotected in 25% sucrose overnight, then frozen in 2-methylbutane at −45° C. and stored at −80° C. Coronal sections were cut at 40 μm with a cryostat microtome (Jung Frigocut 2800 N) and stored in PBS at 4° C.
Free-floating 40 μm sections were processed for Fos immunostaining by blocking with 10% goat serum in dilution buffer (PBS, BSA, 0.3% Triton X-100) for 1.5 h and then incubated overnight at room temperature (20±2 h) in rabbit polyclonal anti-c-Fos primary antibody (1:3000, Calbiochem) in dilution buffer plus 10% goat serum. After sequential rinse steps in dilution buffer and PBS, sections were incubated in biotinylated goat anti-rabbit IgG secondary antibody (1:400, Vector Labs) in dilution buffer plus 15% goat serum for 1 h. After rinsing in PBS, sections were incubated in avidin and biotinylated horseradish peroxidase complex (ABC, 1:150, Vector Labs). Finally, sections were developed using the Sigma Fast diaminobenzidine and urea hydrogen peroxide set, mounted on Super Frost Plus slides and coverslipped using VectaShield (Vector Labs).
Animals were administered ketamine (8, 20, or 100 mg/kg, i.p.) or an equivalent volume of saline and then returned to their home cage for 90 min. Subsequently, the animals were deeply anesthetized by inhalation of isoflurane, perfused transcardially, and processed for Fos staining as described above.
Sections were visualized and photographed using an AxioSkop2 microscope (Zeiss) equipped with a Quantifire XI microscope camera (Optronics). Fos positive cells were counted using point by-point analysis with Neurolucida software (MBF Bioscience). Before analysis, the photomicrographs were coded so that the observers were blinded to the genotype. Cells were counted in every third section through the nTS, and in a representative subset of sections through the other brain regions analyzed. All sections were analyzed twice by two independent and blinded observers, and respective counts were averaged. The nTS was sampled at 12 levels through the rostro-caudal extent of the nucleus and the average counts at each level were then added together to estimate the total number of labeled cells per animal. To define genotype effects on Fos expression, G*Power 3 power analysis software was used to determine group sizes.

CNC1(c2ccccc2Cl)CCCCC1=O (stereo not drawn) [ketamine]
half-life [1]: less than 1 hour
apneic breathing [2]: complete elimination
% PPI 73 dB (Mecp2 Het mice; Het mice): 5.3±5.8%
% PPI 76 dB (Mecp2 Het mice; Het mice): 17.8±2.9%
% PPI 82 dB (Mecp2 Het mice; Het mice): 21.4±6.4%
% PPI 73 dB (Mecp2 Het mice; Wt mice): 7.8±4.1%
% PPI 76 dB (Mecp2 Het mice; Wt mice): 12.8±4.8%
% PPI 82 dB (Mecp2 Het mice; Wt mice): 24.1±5.8%
number of Fos-positive cells in the piriform cortex ([3]; Null mice, ketamine 20 mg/kg i.p.): 83.2±18.2 cells
number of Fos-positive cells in the piriform cortex ([3]; Null mice, ketamine 100 mg/kg i.p.): 116.3±26.4 cells
number of Fos-positive cells in the piriform cortex ([3]; Wt mice, ketamine 100 mg/kg i.p.): 119.3±17.2 cells
increase in the number of Fos-positive cells ([3]; Wt mice, ketamine 100 mg/kg, piriform cortex): 20%
